Assays:
Type in all cases: in vivo
[1] = system: Beet Armyworm (BAW) (spodoptera exigua); experiment: Bioassay on beet armyworm (BAW), 128-well diet tray assay; settings: for BAW Rating: Table 5, prophetic compounds subsequently exemplified, beet armyworm
How it was run: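 Second-instar Spodoptera exigua larvae (one to five per well) on artificial diet surface-treated with 50 μg/cm^2 compound in 90:10 acetone-water, eight wells per compound. Held 5–7 days at 25° C, 14:10 light-dark; percent mortality averaged across wells.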

[2] = system: Cabbage Looper (CL) (Trichoplusia ni); experiment: Bioassay on cabbage looper (CL), 128-well diet tray assay; settings: for CL Rating: Table 5, prophetic compounds subsequently exemplified, cabbage looper
How it was run: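 Second instar larvae, one to five per well, on artificial diet surface-treated with 50 μg/cm^2 compound in acetone-water and dried. Held at 25° C, 14:10 light-dark, five to seven days; percent mortality averaged over eight wells.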

[3] = system: green peach aphid (GPA) (Myzus persicae); experiment: Bioassay on green peach aphid (GPA), foliar spray on cabbage seedlings; settings: 72 h, corrected % control (Abbott), 200 ppm spray on cabbage seedlings, three days, read-out: GPA Rating
Description: Certain molecules disclosed in this document were tested against GPA using procedures described in the following example. In the reporting of the results, the “GPA Rating Table” was used (See Table Section). Cabbage seedlings grown in 3-inch pots, with 2-3 small (3-5 cm) true leaves, were used as test substrate. The seedlings were infested with 20-50 GPA (wingless adult and nymph stages) one day prior to chemical application. Four pots with individual seedlings were used for each treatment. Test compounds (2 mg) were dissolved in 2 mL of acetone/MeOH (1:1) solvent, forming stock solutions of 1000 ppm test compound. The stock solutions were diluted 5× with 0.025% Tween 20 in water to obtain the solution at 200 ppm test compound. A hand-held aspirator-type sprayer was used for spraying a solution to both sides of […] leaves until runoff. Reference plants (solvent check) were sprayed with the diluent only containing 20% by volume of acetone/MeOH (1:1) solvent. Treated plants were held in a holding room for three days at approximately 25° C. and ambient relative humidity (RH) prior to grading. Evaluation was conducted by counting the number of live aphids per plant under a microscope. Percent Control was measured by using Abbott's correction formula (W. S. Abbott, “A Method of Computing the Effectiveness of an Insecticide” J. Econ. Entomol. 18 (1925), pp. 265-267) as follows. […]

SMILES	pest or weed control at 50 µg/cm2 ([1]; Spodoptera exigua, 168 h, % mortality, second instar larvae, 50 μg/cm^2 on artificial diet, five to seven days, 25° C., read-out: BAW Rating) [%]	pest or weed control at 50 µg/cm2 ([2]; Trichoplusia ni, 168 h, % mortality, second instar larvae, 50 μg/cm^2 on artificial diet, five to seven days, 25° C., read-out: CL Rating) [%]	pest or weed control at 200 ppm [3] [%]	BAW Rating [1]	CL Rating [2]
C[C@@H](NC(=O)c1ccc(/C=C/C(c2cc(Cl)c(Cl)c(Cl)c2)C(F)(F)F)cc1I)C(=O)NCC(F)(F)F (some centres unmarked) [FA16]	50 to 100	50 to 100	80 to 100	–	–
CC(NC(=O)c1ccc(/C=C/C(c2cc(Cl)c(Cl)c(Cl)c2)C(F)(F)F)cc1Br)C(=O)NCCC(F)(F)F (centres unmarked) [P1631A]	–	–	–	A (50-100)	A (50-100)
CC(NC(=O)c1ccc(/C=C/C(c2cc(Cl)c(Cl)c(Cl)c2)C(F)(F)F)cc1C(F)(F)F)C(=O)NCCC(F)(F)F (centres unmarked) [P1633A]	–	–	–	A (50-100)	A (50-100)
CC(C)(NC(=O)c1ccc(/C=C/C(c2cc(Cl)c(Cl)c(Cl)c2)C(F)(F)F)cc1)C(=O)NCC(F)(F)F (centres unmarked) [P1636]	–	–	–	A (50-100)	A (50-100)
O=C(CCNC(=O)c1ccc(/C=C/C(c2cc(Cl)c(Cl)c(Cl)c2)C(F)(F)F)cc1Br)NCC(F)(F)F (centres unmarked) [P1638]	–	–	–	A (50-100)	A (50-100)
Cc1cc(/C=C/C(c2cc(Cl)c(Cl)c(Cl)c2)C(F)(F)F)ccc1C(=O)NCCC(=O)NCC(F)(F)F (centres unmarked) [P1641]	–	–	–	A (50-100)	A (50-100)
C[C@@H](NC(=O)c1ccc(/C=C/C(c2cc(Cl)cc(Cl)c2)C(F)(F)C(F)(F)F)cc1Br)C(=O)NCC(F)(F)F (some centres unmarked) [P1691]	–	–	–	A (50-100)	A (50-100)
C[C@@H](NC(=O)c1ccc(/C=C/C(c2cc(Cl)cc(Cl)c2)C(F)(F)C(F)(F)F)cc1C(F)(F)F)C(=O)NCC(F)(F)F (some centres unmarked) [P1693]	–	–	–	A (50-100)	A (50-100)
C[C@@H](NC(=O)c1ccc(/C=C/C(c2cc(Cl)cc(Cl)c2)C(F)(F)F)cc1Br)C(=O)NCC(F)(F)F (some centres unmarked) [P1696]	–	–	–	A (50-100)	A (50-100)
C[C@@H](NC(=O)c1ccc(/C=C/C(c2cc(Cl)cc(Cl)c2)C(F)(F)F)cc1C(F)(F)F)C(=O)NCC(F)(F)F (some centres unmarked) [P1698]	–	–	–	A (50-100)	A (50-100)
O=C(CNC(=O)c1ccc(/C=C/C(c2ccc(Cl)c(Cl)c2)C(F)(F)F)cc1Br)NCC(F)(F)F (centres unmarked) [P1776]	–	–	–	A (50-100)	A (50-100)
O=C(CNC(=O)c1ccc(/C=C/C(c2ccc(Cl)c(Cl)c2)C(F)(F)F)cc1)NCC(F)(F)F (centres unmarked) [P1781]	–	–	–	A (50-100)	A (50-100)
C[C@@H](NC(=O)c1ccc(/C=C/C(c2ccc(Cl)c(Cl)c2)C(F)(F)F)cc1Br)C(=O)NCC(F)(F)F (some centres unmarked) [P1806]	–	–	–	A (50-100)	A (50-100)
O=C(CNC(=O)c1ccc(/C=C/C(c2cc(Cl)c(F)c(Cl)c2)C(F)(F)F)cc1C(F)(F)F)NCC(F)(F)F (centres unmarked) [P1862]	–	–	–	A (50-100)	A (50-100)
O=C(NCC(=S)NCC(F)(F)F)c1ccc(/C=C/C(c2cc(Cl)c(F)c(Cl)c2)C(F)(F)F)cc1Br (centres unmarked) [P1864]	–	–	–	A (50-100)	A (50-100)
O=C(NCC(=S)NCC(F)(F)F)c1ccc(/C=C/C(c2cc(Cl)c(F)c(Cl)c2)C(F)(F)F)cc1C(F)(F)F (centres unmarked) [P1866]	–	–	–	A (50-100)	A (50-100)
O=C(CNC(=O)c1ccc(/C=C/C(c2cc(Br)cc(Br)c2)C(F)(F)F)cc1Cl)NCC(F)(F)F (centres unmarked) [P1970]	–	–	–	A (50-100)	A (50-100)
O=C(CNC(=O)c1ccc(/C=C/C(c2cc(Br)cc(Br)c2)C(F)(F)F)cc1C(F)(F)F)NCC(F)(F)F (centres unmarked) [P1971]	–	–	–	A (50-100)	A (50-100)
Cc1cc(/C=C/C(c2cc(Br)cc(Br)c2)C(F)(F)F)ccc1C(=O)NCC(=O)NCC(F)(F)F (centres unmarked) [P1972]	–	–	–	A (50-100)	A (50-100)
CC(NC(=O)CNC(=O)c1ccc(/C=C/C(c2cc(Br)cc(Br)c2)C(F)(F)F)cc1Br)C(F)(F)F (centres unmarked) [P2009]	–	–	–	A (50-100)	A (50-100)
CC(NC(=O)CNC(=O)c1ccc(/C=C/C(c2cc(Br)cc(Br)c2)C(F)(F)F)cc1Cl)C(F)(F)F (centres unmarked) [P2010]	–	–	–	A (50-100)	A (50-100)
CC(NC(=O)CNC(=O)c1ccc(/C=C/C(c2cc(Br)cc(Br)c2)C(F)(F)F)cc1C(F)(F)F)C(F)(F)F (centres unmarked) [P2011]	–	–	–	A (50-100)	A (50-100)
Cc1cc(/C=C/C(c2cc(Br)cc(Br)c2)C(F)(F)F)ccc1C(=O)NCC(=O)NC(C)C(F)(F)F (centres unmarked) [P2012]	–	–	–	A (50-100)	A (50-100)
C[C@@H](NC(=O)c1ccc(/C=C/C(c2cc(Br)cc(Br)c2)C(F)(F)F)cc1Br)C(=O)NCC(F)F (some centres unmarked) [P2036]	–	–	–	A (50-100)	A (50-100)
C[C@@H](NC(=O)c1ccc(/C=C/C(c2cc(Br)cc(Br)c2)C(F)(F)F)cc1C(F)(F)F)C(=O)NCC(F)F (some centres unmarked) [P2038]	–	–	–	A (50-100)	A (50-100)
C[C@@H](NC(=O)c1ccc(/C=C/C(c2cc(Br)cc(Br)c2)C(F)(F)F)cc1Br)C(=O)NCCF (some centres unmarked) [P2041]	–	–	–	A (50-100)	A (50-100)
C[C@@H](NC(=O)c1ccc(/C=C/C(c2cc(Br)cc(Br)c2)C(F)(F)F)cc1C(F)(F)F)C(=O)NCCF (some centres unmarked) [P2043]	–	–	–	A (50-100)	A (50-100)
C[C@@H](NC(=O)c1ccc(/C=C/C(c2cc(Br)cc(Br)c2)C(F)(F)F)cc1Br)C(=O)NCCC(F)(F)F (some centres unmarked) [P2056]	–	–	–	A (50-100)	A (50-100)
C[C@@H](NC(=O)c1ccc(/C=C/C(c2cc(Br)cc(Br)c2)C(F)(F)F)cc1C(F)(F)F)C(=O)NCCC(F)(F)F (some centres unmarked) [P2058]	–	–	–	A (50-100)	A (50-100)

From patent publication US9226501B2, “Pesticidal compositions and processes related thereto” (Dow AgroSciences LLC, priority 2012, dated 2016)
